Reference: patent publication US7396939B2, “3-cyclopropyl-4-(3-amino-2-methylbenzoyl)pyrazoles and their use as herbicides” (Bayer CropScience GmbH, priority 2004, dated 2008)
Where two headings read alike, the source gives them in different places.

Tests used:
Type in all cases: in vivo
[1] = tested on: Matricaria inodora (MATIN); assay: Post-emergence action against harmful plants; settings: for pest or weed control at 80 g/ha / pest or weed control at 320 g/ha: Tripleurospermum inodorum, read-out: Herbicidal action MATIN; for pest or weed control at 320 g/ha / Herbicidal action MATIN: 320 g of a.i./ha; for Herbicidal action MATIN: Comparative Table 10
Procedure: (§1) Seeds of monocotyledonous and dicotyledonous harmful plants and seeds of corn, soybean and wheat are placed into sandy loam in cardboard pots, covered with soil and grown in the greenhouse under good growth conditions. Two to three weeks after sowing the harmful plants and the crop plants are treated in the three-leaf stage. The compounds according to the invention and the prior-art compounds, formulated as wettable powders or emulsion concentrates, are sprayed onto the green plant parts at an application rate of 600 to 800 l of water/ha (converted) in one of the dosages given in tables 1 to 10. After the test plants have remained in the greenhouse under optimum growth conditions for 3 to 4 weeks, the effect of the compounds is rated in comparison to compounds disclosed in the prior art.

Viola tricolor (VIOTR) = assay: Post-emergence action against harmful plants; settings: post-emergence application, 80 g of a.i./ha, Comparative Table 1
Procedure: as §1

[2] = tested on: Digitaria sanguinalis (DIGSA); assay: Post-emergence action against harmful plants; settings: post-emergence application, 80 g of a.i./ha, Comparative Table 1
Procedure: as §1

[3] = tested on: Echinochloa crus galli (ECHCG); assay: Post-emergence action against harmful plants; settings: post-emergence application
Procedure: as §1

Zea mays (corn) (ZEAMX) [4] = assay: Post-emergence damage of crop plants; settings: post-emergence application
Procedure: as §1

Veronica persica (VERPE) = assay: Post-emergence action against harmful plants; settings: post-emergence application
Procedure: as §1

Galium aparine (GALAP) [5] = assay: Post-emergence action against harmful plants; settings: post-emergence application
Procedure: as §1

[6] = tested on: Glycine max (soybean) (GLXMA); assay: Post-emergence damage of crop plants; settings: post-emergence application
Procedure: as §1

[7] = tested on: Oryza sativa (rice) (ORYSA); assay: Damage of rice under paddy rice conditions; settings: post-emergence application
Procedure: (§2) Rice plants and harmful plants typical in rice crops are grown in the greenhouse under paddy rice conditions (water level: 2-3 cm). After the treatment with the compounds according to the invention and the prior-art compounds, the test plants are placed in the greenhouse under optimum growth conditions and kept like this during the entire test. About three weeks after the application, evaluation is carried out by visual scoring of the damage to the plants.

Stellaria media (STEME) = assay: Post-emergence action against harmful plants; settings: post-emergence application, 80 g of a.i./ha
Procedure: as §1

Avena fatua (AVEFA) = assay: Post-emergence action against harmful plants; settings: post-emergence application, 320 g of a.i./ha, Comparative Table 8
Procedure: as §1

Galium aparine (GALAP) [8] = assay: Pre-emergence action against harmful plants; settings: pre-emergence application, 320 g of a.i./ha, Comparative Table 7
From the text: (§3) Seeds of monocotyledonous and dicotyledonous harmful plants and seeds of corn, soybean and wheat are placed into sandy loam in cardboard pots and covered with soil. The compounds according to the invention and the prior-art compounds, formulated as wettable powders or emulsion concentrates, are then applied to the surface of the covering soil as an aqueous suspension or emulsion at an application rate of 600 to 800 l of water/ha (converted) in one of the dosages given in tables 1 to 10. After the treatment, the pots are placed in a greenhouse and kept under good growth conditions for the harmful plants and crop plants. Visual scoring of plant or emergence damage is carried out after the test plants have emerged after an experimental period of 3 to 4 weeks.

Zea mays (corn) (ZEAMX) [9] = assay: Pre-emergence damage of crop plants; settings: pre-emergence application, 320 g of a.i./ha, Comparative Table 7
From the text: as §3

[10] = tested on: Pharbitis purpureum (PHBPU); assay: Post-emergence action against harmful plants; settings: post-emergence application, 320 g of a.i./ha
Procedure: as §1

[11] = tested on: Triticum aestivum (wheat) (TRZAS); assay: Post-emergence damage of crop plants; settings: post-emergence application, 320 g of a.i./ha, Comparative Table 6
Procedure: as §1

Setaria viridis (SETVI) = assay: Action against harmful plants in the rice test; settings: post-emergence application, 320 g of a.i./ha, Comparative Table 5
Procedure: as §2

[12] = post-emergence application, 80 g of a.i./ha, Comparative Table 1
[13] = 80 g of a.i./ha, Comparative Table 1
[14] = 20 g of a.i./ha, Comparative Table 2
[15] = post-emergence application, 80 g of a.i./ha, Comparative Table 3
[16] = 80 g of a.i./ha, Comparative Table 3
[17] = post-emergence application, Comparative Table 8
[18] = 320 g of a.i./ha, Comparative Table 8
[19] = post-emergence application, Comparative Table 9
[20] = 320 g of a.i./ha, Comparative Table 9
[21] = 320 g of a.i./ha, Comparative Table 10
[22] = post-emergence application, Comparative Table 6
[23] = 320 g of a.i./ha, Comparative Table 6
[24] = 320 g of a.i./ha, Comparative Table 5
[25] = 80 g of a.i./ha, Comparative Table 4

CCCNc1c(S(C)(=O)=O)ccc(C(=O)c2c(C3CC3)nn(C)c2O)c1C [No. 3]
pest or weed control at 80 g/ha [1, 12]: 70% | Herbicidal action VIOTR (Viola tricolor (VIOTR)): 90% | Herbicidal action DIGSA [2]: 90% | Herbicidal action ECHCG [3, 13]: 90% | Damage to the crop plants ZEAMX (Zea mays (corn) (ZEAMX) [4]; [13]): 30%

CCCCNc1c(S(C)(=O)=O)ccc(C(=O)c2c(C3CC3)nn(C)c2O)c1C [No. 4]
Herbicidal action VERPE (Veronica persica (VERPE); [14]): 60% | Herbicidal action GALAP (Galium aparine (GALAP) [5]; [14]): 80% | Damage to the crop plants GLXMA [6, 14]: 0% | Damage to the crop plants ORYSA [7, 14]: 0%

C=CCNc1c(S(C)(=O)=O)ccc(C(=O)c2c(C3CC3)nn(C)c2O)c1C [No. 5]
Herbicidal action STEME (Stellaria media (STEME); Comparative Table 3): 100% | pest or weed control at 80 g/ha [1, 15]: 50% | Herbicidal action GALAP (Galium aparine (GALAP) [5]; [16]): 80% | Damage to the crop plants ZEAMX (Zea mays (corn) (ZEAMX) [4]; [16]): 10% | Damage to the crop plants GLXMA [6, 16]: 0%

COCCNc1c(S(C)(=O)=O)ccc(C(=O)c2c(C3CC3)nn(C)c2O)c1C [No. 9]
pest or weed control at 320 g/ha [1, 17]: 80% | Herbicidal action AVEFA (Avena fatua (AVEFA)): 70% | Damage to the crop plants ZEAMX (Zea mays (corn) (ZEAMX) [4]; [18]): 0% | Damage to the crop plants GLXMA [6, 18]: 20% | Herbicidal action GALAP (Galium aparine (GALAP) [8]): 80% | Damage to the crop plants ZEAMX (Zea mays (corn) (ZEAMX) [9]): 0%

CCOCCNc1c(S(C)(=O)=O)ccc(C(=O)c2c(C3CC3)nn(C)c2O)c1C [No. 10]
pest or weed control at 320 g/ha [1, 19]: 100% | Herbicidal action MATIN ([1]; post-emergence application): 100% | Herbicidal action PHBPU ([10]; Comparative Table 9): 100% | Herbicidal action PHBPU ([10]; Comparative Table 10): 100% | Herbicidal action VERPE (Veronica persica (VERPE); [20]): 100% | Herbicidal action VERPE (Veronica persica (VERPE); [21]): 100% | Herbicidal action ECHCG [3, 21]: 100% | Damage to the crop plants ZEAMX (Zea mays (corn) (ZEAMX) [4]; [21]): 0% | Damage to the crop plants GLXMA [6, 20]: 20% | Damage to the crop plants GLXMA [6, 21]: 20%

Cc1c(C(=O)c2c(C3CC3)nn(C)c2O)ccc(S(C)(=O)=O)c1N1CCCC1 [No. 14]
pest or weed control at 320 g/ha [1, 22]: 50% | Herbicidal action ECHCG [3, 23]: 80% | Damage to the crop plants TRZAS [11]: 0% | Damage to the crop plants GLXMA [6, 23]: 10% | Herbicidal action SETVI (Setaria viridis (SETVI)): 100% | Damage to the crop plants ORYSA [7, 24]: 10%

Cc1c(C(=O)c2c(C3CC3)nn(C)c2O)ccc(S(C)(=O)=O)c1N1CCCCC1 [No. 15]
Herbicidal action STEME (Stellaria media (STEME); Comparative Table 4): 70% | pest or weed control at 80 g/ha ([1]; post-emergence): 60% | Damage to the crop plants ZEAMX (Zea mays (corn) (ZEAMX) [4]; [25]): 0%

CCOCCNc1c(S(C)(=O)=O)ccc(C(=O)c2c(C)nn(C)c2O)c1C [S1]
pest or weed control at 320 g/ha [1, 19]: 60% | Herbicidal action PHBPU ([10]; Comparative Table 9): 90% | Herbicidal action VERPE (Veronica persica (VERPE); [20]): 100% | Damage to the crop plants GLXMA [6, 20]: 90%

CCCNc1c(S(C)(=O)=O)ccc(C(=O)c2c(C)nn(C)c2O)c1C [S2]
pest or weed control at 80 g/ha [1, 12]: 30% | Herbicidal action VIOTR (Viola tricolor (VIOTR)): 80% | Herbicidal action DIGSA [2]: 80% | Herbicidal action ECHCG [3, 13]: 80% | Damage to the crop plants ZEAMX (Zea mays (corn) (ZEAMX) [4]; [13]): 60%

CCCCNc1c(S(C)(=O)=O)ccc(C(=O)c2c(C)nn(C)c2O)c1C [S3]
Herbicidal action VERPE (Veronica persica (VERPE); [14]): 20% | Herbicidal action GALAP (Galium aparine (GALAP) [5]; [14]): 40% | Damage to the crop plants GLXMA [6, 14]: 20% | Damage to the crop plants ORYSA [7, 14]: 30%

C=CCNc1c(S(C)(=O)=O)ccc(C(=O)c2c(C)nn(C)c2O)c1C [S4]
Herbicidal action STEME (Stellaria media (STEME); Comparative Table 3): 100% | pest or weed control at 80 g/ha [1, 15]: 30% | Herbicidal action GALAP (Galium aparine (GALAP) [5]; [16]): 80% | Damage to the crop plants ZEAMX (Zea mays (corn) (ZEAMX) [4]; [16]): 30% | Damage to the crop plants GLXMA [6, 16]: 50%

Cc1nn(C)c(O)c1C(=O)c1ccc(S(C)(=O)=O)c(N2CCCCC2)c1C [S5]
Herbicidal action STEME (Stellaria media (STEME); Comparative Table 4): 20% | pest or weed control at 80 g/ha ([1]; post-emergence application, 80 g of a.i./ha, Comparative Table 4): 40% | Damage to the crop plants ZEAMX (Zea mays (corn) (ZEAMX) [4]; [25]): 10%

CCn1nc(C)c(C(=O)c2ccc(S(C)(=O)=O)c(N3CCCC3)c2C)c1O [S6]
pest or weed control at 320 g/ha [1, 22]: 0% | Herbicidal action ECHCG [3, 23]: 50% | Damage to the crop plants TRZAS [11]: 10% | Damage to the crop plants GLXMA [6, 23]: 20% | Herbicidal action SETVI (Setaria viridis (SETVI)): 90% | Damage to the crop plants ORYSA [7, 24]: 20%

CCn1nc(C)c(C(=O)c2ccc(S(C)(=O)=O)c(NCCOC)c2C)c1O [S7]
pest or weed control at 320 g/ha [1, 17]: 70% | Herbicidal action MATIN ([1]; post-emergence application): 70% | Herbicidal action AVEFA (Avena fatua (AVEFA)): 50% | Herbicidal action PHBPU ([10]; Comparative Table 10): 40% | Herbicidal action VERPE (Veronica persica (VERPE); [21]): 90% | Herbicidal action ECHCG [3, 21]: 90% | Damage to the crop plants ZEAMX (Zea mays (corn) (ZEAMX) [4]; [18]): 20% | Damage to the crop plants ZEAMX (Zea mays (corn) (ZEAMX) [4]; [21]): 20% | Damage to the crop plants GLXMA [6, 18]: 60% | Damage to the crop plants GLXMA [6, 21]: 60% | Herbicidal action GALAP (Galium aparine (GALAP) [8]): 70% | Damage to the crop plants ZEAMX (Zea mays (corn) (ZEAMX) [9]): 20%
